Target: T1, HCV NS3 protease domain (Hepatitis C virus genotype 1b, UniProt Q9WMX2)
T1 construct: The first 181 amino acids of NS3 (residues 1027-1207 of the viral polyprotein); hexa-histidine (C); made in house; host or cells: E. coli BL21/DE3 pLysS
Assay: biochemical
Conditions: Enzyme Assay 1 (HCV NS3 Protease Domain Peptide Cleavage Assay) activity, apparent Ki class

T1 sequence (Q9WMX2 1027-1207, other chains not shown): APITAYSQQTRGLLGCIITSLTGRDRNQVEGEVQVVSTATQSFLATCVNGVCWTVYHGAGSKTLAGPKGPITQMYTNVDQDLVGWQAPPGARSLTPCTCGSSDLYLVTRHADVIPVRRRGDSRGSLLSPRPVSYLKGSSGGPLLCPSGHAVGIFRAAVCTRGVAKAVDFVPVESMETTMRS

Row | Compound | Ki [nM]
1 | C=CCOC(=O)N[C@H](C(=O)N1C[C@@]2(CC(c3ccccc3)=NO2)C[C@H]1C(=O)N[C@@H](CCC)C(=O)C(=O)NC1CC1)C(C)(C)C [Compound 151] | 100 to 500
2 | CCC[C@H](NC(=O)[C@@H]1C[C@]2(CC(c3ccc(F)c(C)c3)=NO2)CN1C(=O)O[C@H]1CCOC1)C(=O)C(=O)NC1CC1 [Compound 413] | > 500
3 | CCC[C@H](NC(=O)[C@@H]1C[C@]2(CC(c3ccc4c(c3)OCO4)=NO2)CN1C(=O)[C@@H](NC(=O)CC1CCOCC1)C(C)(C)C)C(=O)C(N)=O [Compound 375] | > 500
4 | CCC[C@H](NC(=O)[C@@H]1C[C@]2(CC(C3CCCC3)=NO2)CN1C(=O)[C@@H](NC(=O)O[C@H]1CCOC1)C(C)(C)C)C(=O)C(=O)NC1CC1 [Compound 70] | > 500
5 | CCC[C@H](NC(=O)[C@@H]1C[C@]2(CC(c3cccc(Br)c3)=NO2)CN1C(=O)[C@@H](NC(=O)OCc1ccccc1)C(C)(C)C)C(=O)C(=O)NC1CC1 [Compound 239] | 100 to 500
6 | CC(C)(C)[C@H](NC(=O)OCc1ccccc1)C(=O)N1C[C@@]2(CC(c3ccc4c(c3)OCO4)=NO2)C[C@H]1C(=O)NC(CC1CCC1)C(=O)C(N)=O (stereo partly drawn) [Compound 415] | 100 to 500
7 | CCC[C@H](NC(=O)[C@@H]1C[C@]2(CC(c3cccc(Cl)c3)=NO2)CN1C(=O)[C@@H](NC(=O)OCCOC)C(C)(C)C)C(=O)C(=O)NC1CC1 [Compound 260] | 100 to 500
8 | CCC[C@H](NC(=O)[C@@H]1C[C@]2(CC(c3cccc(Cl)c3)=NO2)CN1C(=O)[C@@H](NC(=O)OCCc1ccsc1)C(C)(C)C)C(=O)C(=O)NC1CC1 [Compound 159] | 100 to 500
9 | CCC[C@H](NC(=O)[C@@H]1C[C@]2(CC(c3ccccc3)=NO2)CN1C(=O)[C@@H](NS(=O)(=O)c1cccc2ccccc12)C(C)(C)C)C(=O)C(=O)NC1CC1 [Compound 101] | > 500
10 | CCC[C@H](NC(=O)[C@@H]1C[C@]2(CC(c3ccccc3Cl)=NO2)CN1C(=O)[C@@H](NC(=O)OCc1ccccc1)C(C)(C)C)C(=O)C(=O)NC1CC1 [Compound 164] | > 500
11 | CCC[C@H](NC(=O)[C@@H]1C[C@]2(CC(c3cccc(Cl)c3)=NO2)CN1C(=O)[C@@H](NC(=O)Cc1cccc(OC(F)(F)F)c1)C(C)(C)C)C(=O)C(=O)NC1CC1 [Compound 585] | 100 to 500
12 | CCC[C@H](NC(=O)[C@@H]1C[C@]2(CC(c3cccc(Cl)c3)=NO2)CN1C(=O)[C@@H](NC(=O)NC(C)(C)C)C(C)(C)C)C(=O)C(=O)NC1CC1 [Compound 492] | < 100
13 | CCC[C@H](NC(=O)[C@@H]1C[C@]2(CC(c3cc(F)c(F)c(F)c3)=NO2)CN1C(=O)[C@@H](NC(=O)O[C@H]1CCOC1)C(C)(C)C)C(=O)C(=O)NC1CC1 [Compound 215] | 100 to 500
14 | CCC[C@H](NC(=O)[C@@H]1C[C@]2(CC(c3cccc(Cl)c3)=NO2)CN1C(=O)CNC(=O)OCC)C(=O)C(=O)NC1CC1 [Compound 207] | > 500
15 | CCC[C@H](NC(=O)C1C[C@]2(CC(c3ccc(C(F)(F)F)cc3)=NO2)CN1C(=O)[C@@H](NC(=O)O[C@H]1CCOC1)C(C)(C)C)C(=O)C(=O)NC1CC1 (stereo partly drawn) [Compound 52] | 100 to 500
16 | CCC[C@H](NC(=O)[C@@H]1C[C@]2(CC(c3cccc(Cl)c3)=NO2)CN1C(=O)[C@@H](NC(=O)NC1CC1)C(C)(C)C)C(=O)C(=O)NC1CC1 [Compound 76] | 100 to 500
17 | CCC[C@H](NC(=O)[C@@H]1C[C@]2(CC(c3cccc(Cl)c3)=NO2)CN1C(=O)[C@@H](NC(=O)CN1CCOCC1)C(C)(C)C)C(=O)C(=O)NC1CC1 [Compound 81] | > 500
18 | CCC[C@H](NC(=O)[C@@H]1C[C@]2(CC(c3ccc(Cl)c(C)c3)=NO2)CN1C(=O)[C@@H](NC(=O)CC1CCCCC1)C(C)(C)C)C(=O)C(=O)NC1CC1 [Compound 436] | 100 to 500
19 | CCC[C@H](NC(=O)[C@@H]1C[C@]2(CC(c3cc(C)c(OC)c(C)c3)=NO2)CN1C(=O)[C@@H](NC(=O)O[C@H]1CCOC1)C(C)(C)C)C(=O)C(=O)NC1CC1 [Compound 191] | > 500
20 | CCC[C@H](NC(=O)[C@@H]1C[C@]2(CC(c3cccc(Cl)c3)=NO2)CN1C(=O)[C@@H](NC(=O)O[C@H]1CO[C@H]2OCC[C@H]21)C(C)(C)C)C(=O)C(=O)NC1CC1 [Compound 387] | 100 to 500
21 | CCC[C@H](NC(=O)[C@@H]1C[C@]2(CC(c3ccc([N+](=O)[O-])cc3)=NO2)CN1C(=O)[C@@H](NC(=O)O[C@H]1CCOC1)C(C)(C)C)C(=O)C(=O)NC1CC1 [Compound 511] | 100 to 500
22 | CC(C)(C)NC(=O)N[C@H](C(=O)N1C[C@@]2(CC(c3cccc(Cl)c3)=NO2)C[C@H]1C(=O)NC(CC1CCC1)C(=O)C(=O)NC1CC1)C(C)(C)C (stereo partly drawn) [Compound 542] | < 100
23 | CCC[C@H](NC(=O)[C@@H]1C[C@]2(CC(c3cccc(Cl)c3)=NO2)CN1C(=O)[C@@H](NC(=O)OC1CCCOC1)C(C)(C)C)C(=O)C(=O)NC1CC1 (stereo partly drawn) [Compound 515] | 100 to 500
24 | CCC[C@H](NC(=O)[C@@H]1C[C@]2(CC(c3cccc(Cl)c3)=NO2)CN1C(=O)[C@@H](NC(=O)OCc1cccnc1C)C(C)(C)C)C(=O)C(=O)NC1CC1 [Compound 167] | 100 to 500

Row | Compound | Ki [nM]
25 | CCC[C@H](NC(=O)[C@@H]1C[C@]2(CC(c3cccc(Cl)c3)=NO2)CN1C(=O)[C@@H](NC(=O)C1CCOCC1)C(C)(C)C)C(=O)C(=O)NC1CC1 [Compound 523] | 100 to 500
26 | CCC[C@H](NC(=O)[C@@H]1C[C@]2(CC(c3ccc(CC)o3)=NO2)CN1C(=O)[C@@H](NC(=O)CC1CCCCC1)C(C)(C)C)C(=O)C(=O)NC1CC1 [Compound 256] | 100 to 500
27 | CCC[C@H](NC(=O)[C@@H]1C[C@]2(CC(c3cccc(OC)c3OC)=NO2)CN1C(=O)[C@@H](NC(=O)OCc1ccccc1)C(C)(C)C)C(=O)C(=O)NC1CC1 [Compound 434] | 100 to 500
28 | CCC[C@H](NC(=O)[C@@H]1C[C@]2(CC(C)=NO2)CN1C(=O)[C@@H](NC(C)=O)C(C)(C)C)C(=O)C(=O)NC1CC1 [Compound 180] | > 500
29 | CCCC1=NO[C@]2(C1)C[C@@H](C(=O)N[C@@H](CCC)C(=O)C(=O)NC1CC1)N(C(=O)[C@@H](NC(=O)OCc1ccccc1)C(C)(C)C)C2 [Compound 235] | > 500
30 | CCC[C@H](NC(=O)[C@@H]1C[C@]2(CC(c3cccc(Cl)c3)=NO2)CN1C(=O)[C@@H](NC(=O)NCC(C)C)C(C)(C)C)C(=O)C(=O)NC1CC1 [Compound 156] | < 100
31 | CCC[C@H](NC(=O)[C@@H]1C[C@]2(CC(c3c4ccccc4cc4ccccc34)=NO2)CN1C(=O)[C@@H](NC(=O)OCc1ccccc1)C(C)(C)C)C(=O)C(=O)NC1CC1 [Compound 199] | > 500
32 | CCC[C@H](NC(=O)[C@@H]1C[C@]2(CC(c3ccc4c(c3)OCCO4)=NO2)CN1C(=O)[C@@H](NC(=O)O[C@H]1CCOC1)C(C)(C)C)C(=O)C(=O)NC1CC1 [Compound 456] | 100 to 500
33 | CCC[C@H](NC(=O)[C@@H]1C[C@]2(CC(c3ccc(F)cc3)=NO2)CN1C(=O)[C@@H](NC(=O)[C@@H](NC(=O)c1cnccn1)C(C)(C)C)C(C)(C)C)C(=O)C(=O)NC1CC1 [Compound 417] | < 100
34 | C=CCOC(=O)N[C@H](C(=O)N1C[C@@]2(CC(c3ccc(F)cc3)=NO2)C[C@H]1C(=O)N[C@@H](CCC)C(=O)C(=O)NC1CC1)C(C)(C)C [Compound 154] | 100 to 500
35 | CCC[C@H](NC(=O)[C@@H]1C[C@]2(CC(c3cccc(Cl)c3)=NO2)CN1C(=O)[C@@H](NC(=O)OCCc1cccs1)C(C)(C)C)C(=O)C(=O)NC1CC1 [Compound 582] | 100 to 500
36 | CCC[C@H](NC(=O)[C@@H]1C[C@]2(CC(c3cccc(Cl)c3)=NO2)CN1C(=O)[C@@H](NC(=O)OCC)C(C)(C)C)C(=O)C(=O)NC1CC1 [Compound 407] | 100 to 500
37 | CCC[C@H](NC(=O)[C@@H]1C[C@]2(CC(c3ccc(F)c(C)c3)=NO2)CN1C(=O)[C@@H](NC(=O)O[C@H]1CCOC1)C(C)(C)C)C(=O)C(=O)NC1CC1 [Compound 555] | 100 to 500
38 | CCC[C@H](NC(=O)[C@@H]1C[C@]2(CC(c3cccc(Cl)c3)=NO2)CN1C(=O)[C@@H](NC(=O)NC1CCN(C(=O)OCc2ccccc2)CC1)C(C)(C)C)C(=O)C(=O)NC1CC1 [Compound 261] | 100 to 500
39 | CC(C)(C)[C@H](NC(=O)CC1CCCCC1)C(=O)N1C[C@@]2(CC(c3cccc(Cl)c3)=NO2)C[C@H]1C(=O)NC(CC1CCC1)C(=O)C(N)=O (stereo partly drawn) [Compound 217] | < 100
40 | CCC[C@H](NC(=O)[C@@H]1C[C@@]2(CC(c3cccc(C(F)(F)F)c3)=NO2)CN1C(=O)[C@@H](NC(=O)O[C@H]1CCOC1)C(C)(C)C)C(=O)C(=O)NC1CC1 [Compound 509] | > 500
41 | CCC[C@H](NC(=O)[C@@H]1C[C@]2(CC(c3ccc(C(F)(F)F)cc3)=NO2)CN1C(=O)O[C@H]1CCOC1)C(=O)C(=O)NC1CC1 [Compound 240] | > 500
42 | CCC[C@H](NC(=O)[C@@H]1C[C@]2(CC(c3cccc(Cl)c3)=NO2)CN1C(=O)[C@@H](NC(=O)OC1CCOCC1)C(C)(C)C)C(=O)C(=O)NC1CC1 [Compound 374] | 100 to 500
43 | CCC[C@H](NC(=O)[C@@H]1C[C@]2(CC(c3ccc(Cl)c(Cl)c3)=NO2)CN1C(=O)[C@@H](NC(=O)CC1CCCCC1)C(C)(C)C)C(=O)C(=O)NC1CC1 [Compound 323] | 100 to 500
44 | CCC[C@H](NC(=O)[C@@H]1C[C@]2(CC(c3cccc(F)c3)=NO2)CN1C(=O)[C@@H](NC(=O)O[C@H]1CCOC1)C(C)(C)C)C(=O)C(=O)NC1CC1 [Compound 24] | 100 to 500
45 | CCC[C@H](NC(=O)[C@@H]1C[C@]2(CC(c3ccc4noc(-c5ccc(Cl)cc5)c4c3)=NO2)CN1C(=O)[C@@H](NC(=O)O[C@H]1CCOC1)C(C)(C)C)C(=O)C(=O)NC1CC1 [Compound 448] | 100 to 500
46 | CCC[C@H](NC(=O)[C@@H]1C[C@]2(CC(c3ccc(Cl)c(Cl)c3)=NO2)CN1C(=O)[C@@H](NC(=O)O[C@H]1CCOC1)C(C)(C)C)C(=O)C(=O)NC1CC1 [Compound 32] | 100 to 500
47 | CCC[C@H](NC(=O)[C@@H]1C[C@]2(CC(c3cc(F)c(F)c(F)c3)=NO2)CN1C(=O)O[C@H]1CCOC1)C(=O)C(=O)NC1CC1 [Compound 414] | > 500
48 | CCC[C@H](NC(=O)[C@@H]1C[C@]2(CC(c3cccc(Cl)c3)=NO2)CN1C(=O)[C@@H](NC(=O)OCc1cccc(F)c1)C(C)(C)C)C(=O)C(=O)NC1CC1 [Compound 209] | 100 to 500
